Data from ChEMBL document CHEMBL1138729, “Aminoimidazo[1,2-a]pyridines as a new structural class of cyclin-dependent kinase inhibitors. Part 1: Design, synthesis, and biological evaluation” (Bioorg Med Chem Lett, 2004).

What was measured:
[1] = target: Cyclin-dependent kinase 2 (Homo sapiens, UniProt P24941); assay: Inhibitory activity against Cyclin-dependent kinase 2 (CDK2)
[2] = target: Cyclin-dependent kinase 4 (Homo sapiens, UniProt P11802); assay: Inhibitory activity against Cyclin-dependent kinase 4 (CDK4)
Sequence of Cyclin-dependent kinase 4 (P11802 whole entry): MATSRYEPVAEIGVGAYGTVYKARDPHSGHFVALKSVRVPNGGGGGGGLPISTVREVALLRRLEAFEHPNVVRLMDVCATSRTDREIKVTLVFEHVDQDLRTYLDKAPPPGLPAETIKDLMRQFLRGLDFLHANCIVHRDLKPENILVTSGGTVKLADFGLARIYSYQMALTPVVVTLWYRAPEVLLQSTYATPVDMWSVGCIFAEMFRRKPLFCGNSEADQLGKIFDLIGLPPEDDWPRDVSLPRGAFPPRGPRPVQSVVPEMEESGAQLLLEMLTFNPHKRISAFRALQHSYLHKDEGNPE

[3] = Inhibitory activity against Cyclin-dependent kinase 1 (CDK1)

Nc1nc2ccc(C(=O)c3c(F)cccc3F)cn2c1C(=O)c1ccc(Cl)cc1 showed an IC50 [1] of 1710 nM.

Compound Nc1nc2ccc(C(=O)c3c(F)cccc3Cl)cn2c1C(=O)c1c(F)cccc1F has an IC50 [2] of 810 nM, an IC50 [3] of 104 nM and an IC50 [1] of 33 nM.

Compound COc1ccccc1C(=O)c1c(N)nc2ccc(C(=O)c3c(F)cccc3F)cn12 has an IC50 [2] of 1970 nM, an IC50 [3] of 475 nM and an IC50 [1] of 68 nM.

In the case of Nc1nc2ccc(C(=O)c3c(F)cccc3F)cn2c1C(=O)c1c(F)cccc1Cl, the IC50 [2] is reported as 827 nM, the IC50 [3] is reported as 239 nM and the IC50 [1] is reported as 102 nM.

Work on Nc1nc2ccc(/C(=C/c3nn[nH]n3)c3c(F)cccc3F)cn2c1C(=O)c1c(F)cccc1F yielded an IC50 [2] of 1700 nM, an IC50 [3] of 96 nM and an IC50 [1] of 1690 nM.

Compound COc1cc(F)c(C(=S)c2c(N)nc3ccc(C(=O)c4c(F)cccc4F)cn23)c(F)c1 has an IC50 [2] of 464 nM, an IC50 [3] of 143 nM and an IC50 [1] of 29 nM.

In the case of Nc1nc2ccc(C(=O)c3c(F)cccc3F)cn2c1C(=S)c1c(F)cccc1F, the IC50 [2] is reported as 786 nM, the IC50 [3] is reported as 105 nM and the IC50 [1] is reported as 26 nM.

Compound Cc1ccccc1C(=O)c1ccc2nc(N)c(C(=O)c3c(F)cccc3F)n2c1 has an IC50 [1] of 1290 nM.

In the case of CN1CCN(CCOc2cc(F)c(C(=O)c3c(N)nc4ccc(C(=O)c5c(Cl)cccc5Cl)cn34)c(F)c2)CC1, the IC50 [1] is reported as 812 nM.

Nc1nc2ccc(C(=O)c3ccccc3C(F)(F)F)cn2c1C(=O)c1c(F)cccc1F showed an IC50 [1] of 1070 nM.

Nc1nc2ccc(C(=O)c3c(F)cccc3F)cn2c1C(=O)c1c(Cl)cccc1Cl showed an IC50 [2] of 359 nM, an IC50 [3] of 209 nM and an IC50 [1] of 121 nM.

With Nc1nc2ccc(C(=O)c3c(F)cccc3F)cn2c1C(=O)c1cccs1 the IC50 [1] was 547 nM.

In the case of CN(C)CCOc1cc(F)c(C(=O)c2c(N)nc3ccc(C(=O)c4c(Cl)cccc4Cl)cn23)c(F)c1, the IC50 [1] is reported as 984 nM.

In the case of COc1cccc(OC)c1C(=S)c1c(N)nc2ccc(C(=O)c3c(F)cccc3F)cn12, the IC50 [1] is reported as 462 nM.

NC(=O)c1cc(F)c(C(=O)c2c(N)nc3ccc(C(=O)c4c(Cl)cccc4Cl)cn23)c(F)c1 gave an IC50 [2] of 1140 nM, an IC50 [3] of 154 nM and an IC50 [1] of 46 nM.

COc1ccccc1C(=O)c1ccc2nc(N)c(C(=O)c3c(F)cccc3F)n2c1 gave an IC50 [1] of 603 nM.

With Nc1nc2ccc(C(=O)c3c(F)cccc3F)cn2c1C(=O)c1c(F)cccc1F the IC50 [2] was 1080 nM, the IC50 [3] was 57 nM and the IC50 [1] was 122 nM.

Nc1nc2ccc(C(=O)c3c(Cl)cccc3Cl)cn2c1C(=O)c1c(F)cccc1F showed an IC50 [1] of 53 nM.

Work on N#C/C=C(\c1ccc2nc(N)c(C(=O)c3c(F)cccc3F)n2c1)c1c(F)cccc1F yielded an IC50 [1] of 896 nM.

Nc1nc2ccc(C(=O)c3ccccc3OC(F)(F)F)cn2c1C(=O)c1c(F)cccc1F showed an IC50 [1] of 2170 nM.

Nc1nc2ccc(C(=O)c3c(F)cccc3F)cn2c1C(=O)c1ccccc1 showed an IC50 [2] of 5050 nM.

COc1cc(F)c(C(=O)c2c(N)nc3ccc(C(=O)c4c(F)cccc4F)cn23)c(F)c1 showed an IC50 [2] of 838 nM, an IC50 [3] of 132 nM and an IC50 [1] of 91 nM.

Nc1nc2ccc(C(=O)c3ccccc3)cn2c1C(=O)c1c(F)cccc1F showed an IC50 [1] of 1930 nM.

For Nc1nc2ccc(C(=O)c3c(F)cccc3F)cn2c1C(=O)c1ccncc1, the IC50 [1] was 2540 nM.

Compound Nc1nc2ccc(C(=O)c3c(Cl)cccc3Cl)cn2c1C(=O)c1c(F)cc(O)cc1F has an IC50 [1] of 52 nM.

Compound N#C/C=C(/c1ccc2nc(N)c(C(=O)c3c(F)cccc3F)n2c1)c1c(F)cccc1F has an IC50 [2] of 1550 nM, an IC50 [3] of 53 nM and an IC50 [1] of 160 nM.

For Nc1nc2ccc(C(=O)c3c(Cl)cccc3Cl)cn2c1C(=O)c1c(F)cc(C(=O)O)cc1F, the IC50 [2] was 2590 nM, the IC50 [3] was 328 nM and the IC50 [1] was 95 nM.

With Nc1nc2ccc(C(=O)c3c(F)cccc3F)cn2c1C(=S)c1ccccc1 the IC50 [2] was 1890 nM, the IC50 [3] was 165 nM and the IC50 [1] was 214 nM.

With Nc1nc2ccc(C(=O)c3ccccc3Cl)cn2c1C(=O)c1c(F)cccc1F the IC50 [1] was 428 nM.

Work on C=C(c1ccc2nc(N)c(C(=O)c3c(F)cccc3F)n2c1)c1c(F)cccc1F yielded an IC50 [2] of 1030 nM, an IC50 [3] of 93 nM and an IC50 [1] of 63 nM.
